pIC50: −log10 of the molar value.
Columns and labels:
[1] = tested on: Mycobacterium tuberculosis; experiment: Ratio of compound MIC90 to Rifampin S MIC90 for Mycobacterium tuberculosis RNA polymerase RpoB S450L mutant
[2] = tested on: Mycobacterium tuberculosis; experiment: (§1) Inhibition of Mycobacterium tuberculosis expressing RNA polymerase RpoB S450L mutant after 10 mins using ribo green by rolling circle transcription assay
[3] = as §1
[4] = tested on: Mycobacterium tuberculosis; experiment: Ratio of compound MIC90 to Rifamycin S MIC90 for Mycobacterium tuberculosis RNA polymerase RpoB S450L mutant

SMILES	Ratio IC50 [1]	logIC50 [2]	pIC50 [3]	Ratio [4]
CO[C@H]1/C=C/O[C@@]2(C)Oc3c(C)c(N)c4c(c3C2=O)C(=O)C=C(NC(=O)/C(C)=C\C=C\[C@H](C)[C@H](O)[C@@H](C)[C@@H](O)[C@@H](C)[C@H](OC(C)=O)[C@@H]1C)C4=O	3	2.27	3.73	
CO[C@H]1/C=C/O[C@@]2(C)Oc3c(C)c(SC)c4c(c3C2=O)C(=O)C=C(NC(=O)/C(C)=C\C=C\[C@H](C)[C@H](O)[C@@H](C)[C@@H](O)[C@@H](C)[C@H](OC(C)=O)[C@@H]1C)C4=O		1.57	4.43	
CO[C@H]1/C=C/O[C@@]2(C)Oc3c(c4c5c(nn(CCO)c5c3C)C(=C(/C=N/N3CCN(C)CC3)C4=O)NC(=O)/C(C)=C\C=C\[C@H](C)[C@H](O)[C@@H](C)[C@@H](O)[C@@H](C)[C@H](OC(C)=O)[C@@H]1C)C2=O		1.48	4.52	
CO[C@H]1/C=C/O[C@@]2(C)Oc3c(C)c(O)c4c(c3C2=O)C(=O)C(/C=N/N2CCN(C)CC2)=C(NC(=O)/C(C)=C\C=C\[C@H](C)[C@H](O)[C@@H](C)[C@@H](O)[C@@H](C)[C@H](OC(C)=O)[C@@H]1C)C4=O [RIFAMPIN S]		1.67	4.33	
CO[C@H]1/C=C/O[C@@]2(C)Oc3c(C)c(NC4CCCCCC4)c4c(c3C2=O)C(=O)C=C(NC(=O)/C(C)=C\C=C\[C@H](C)[C@H](O)[C@@H](C)[C@@H](O)[C@@H](C)[C@H](OC(C)=O)[C@@H]1C)C4=O	3	2.1	3.90	
CO[C@H]1/C=C/O[C@@]2(C)Oc3c(C)c(N(C)C)c4c(c3C2=O)C(=O)C=C(NC(=O)/C(C)=C\C=C\[C@H](C)[C@H](O)[C@@H](C)[C@@H](O)[C@@H](C)[C@H](OC(C)=O)[C@@H]1C)C4=O	3	2.43	3.57	
CO[C@H]1/C=C/O[C@@]2(C)Oc3c(C)c(O)c4c(c3C2=O)C(=O)C=C(NC(=O)/C(C)=C\C=C\[C@H](C)[C@H](O)[C@@H](C)[C@@H](O)[C@@H](C)[C@H](OC(C)=O)[C@@H]1C)C4=O [RIFAMYCIN S]		1.56	4.44	
CO[C@H]1/C=C/O[C@@]2(C)Oc3c(C)c(OS(=O)(=O)c4ccc(C)cc4)c4c(c3C2=O)C(=O)C=C(NC(=O)/C(C)=C\C=C\[C@H](C)[C@H](O)[C@@H](C)[C@@H](O)[C@@H](C)[C@H](OC(C)=O)[C@@H]1C)C4=O		2.99	3.01	5

— ChEMBL document CHEMBL1909569 (Bioorg Med Chem Lett, 2011)
